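Values below derive from 48-hour exposures of cells grown in 96-well plates, with endpoints linearly interpolated between the two concentrations bracketing the appropriate inhibition level. The concentration for full growth arrest is given as TGI.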
Key:
Experiment in all cases: NCI-60 cell line screen, 48 h
DMS 273 small cell lung = test system: DMS 273 small cell lung
DMS 114 small cell lung = test system: DMS 114 small cell lung
DLD-1 colon = test system: DLD-1 colon
LXFL 529 NSCLC = test system: LXFL 529 NSCLC
HOP-18 NSCLC = test system: HOP-18 NSCLC
M19-MEL melanoma = test system: M19-MEL melanoma
RXF-631 renal = test system: RXF-631 renal

Compound	TGI (DMS 273 small cell lung)	TGI (DMS 114 small cell lung)	TGI (DLD-1 colon)	TGI (LXFL 529 NSCLC)	TGI (HOP-18 NSCLC)	TGI (M19-MEL melanoma)	TGI (RXF-631 renal)
C/C(=C\Cc1cc(O)ccc1O)CCc1c(C)c(O)c(O)c(C=O)c1C	74.6 µM	34 µM	56.8 µM	32.4 µM	59.9 µM	38.8 µM	
CC1=NN(C(=O)c2ccc(Cl)cc2)C(=O)/C1=C/c1ccc(Cl)cc1		> 100 µM	> 100 µM	> 100 µM		> 100 µM	
C#CCSc1nc(N)c2ncn(C3OC(COP(=O)(O)O)C(O)C3O)c2n1 (stereo not given)	> 239 µM		> 239 µM		> 239 µM	> 239 µM	
COc1cccc(NC(=O)CC(=O)NNCC(=O)Nc2nnc(-c3ccc(N(CCC#N)S(=O)(=O)c4ccccc4)cc3)s2)c1	> 100 µM	> 100 µM	> 100 µM	> 100 µM	> 100 µM	> 100 µM	> 100 µM
CN1Cc2c(nc(-c3ccc(Br)cc3)c[n+]2[O-])N(C)C1	> 100 µM	> 100 µM	> 100 µM	> 100 µM	> 100 µM		
COC1=CC(=O)c2c(O)c3c(c(O)c2C1=O)C[C@](C)(O)C[C@@H]3O	8.37 µM	3.7 µM	17.2 µM	14.9 µM		0.73 µM	11.2 µM
CC(=O)Nc1ccc(C(=O)N2N=C(C)/C(=C/c3cccc([N+](=O)[O-])c3)C2=O)cc1	> 100 µM	> 100 µM	> 100 µM		> 100 µM	> 100 µM	
CN(/N=N/c1nc[nH]c1C(N)=O)C1CCCCC1	> 100 µM	> 100 µM	> 100 µM	> 100 µM		> 100 µM	
C=CCC1(CC)C(=O)NC(=O)NC1=O	> 100 µM			> 100 µM		> 100 µM	

— PubChem BioAssay (NCI)
